Values quoted from earlier work as cited in paper PMC12697872, “Rethinking the AI Paradigm for Solubility Prediction of Drug‑Like Compounds with Dual‐Perspective Modeling and Experimental Validation” (Advanced Science, 2025).

details: discarded ambiguous entries of DrugBank database; ref DrugBank database (version 5.1.12) 24; cited from earlier work

Row | SMILES | Experimental solubility (descriptive)
1 | Cc1ncc(COP(=O)(O)O)c(C=O)c1O [54-47-7] | Appreciable
2 | CCC(NC(C)C)C(O)c1ccc(O)c(O)c1 (stereo not shown) [79490-84-9] | Appreciable

same assay, conditions: experimental aqueous solubility as logS, sheet "DrugBank" of Supplement 2; ref DrugBank; cited from earlier work

Row | SMILES | ex_logS
3 | CCCCCCCCCCCC(=O)O [Lauric acid] | -4.62
4 | C[C@]12C/C(=C/O)C(=O)C[C@@H]1CC[C@@H]1[C@@H]2CC[C@@]2(C)[C@H]1CC[C@]2(C)O [Oxymetholone] | -4.805
5 | CNCCCN1c2ccccc2CCc2ccccc21 [Desipramine] | -3.658
6 | CC(C(=O)O)C(=O)O [Methylmalonic Acid] | 0.7597
7 | O=C1CN(/N=C/c2ccc([N+](=O)[O-])o2)C(=O)N1 [Nitrofurantoin] | -3.4765
8 | S=c1[nH]cnc2nc[nH]c12 [Mercaptopurine] | -3.089
9 | CCOC(=O)[C@H](CCc1ccccc1)N[C@H]1CCCN2CCC[C@@H](C(=O)O)N2C1=O [Cilazapril] | -1.922
10 | Cc1cnc(Nc2ccc(OCCN3CCCC3)cc2)nc1Nc1cccc(S(=O)(=O)NC(C)(C)C)c1 [Fedratinib] | -5.118
11 | O=c1[nH]cnc2nc[nH]c12 [Hypoxanthine] | -2.2888
12 | CCN(CC)CCOC(=O)c1ccc(N)cc1 [procaine] | -1.78
13 | Cn1nnc2c(C(N)=O)ncn2c1=O [Temozolomide] | -1.581
14 | CC(OC(=O)NCC1(CC(=O)O)CCCCC1)OC(=O)C(C)C (stereo not shown) [Gabapentin enacarbil] | -2.819
15 | CCCNC(C)C(=O)Nc1ccccc1C (stereo not shown) [Prilocaine] | -2.61
16 | CC(C)[C@@H]1CC[C@@H](C)C[C@H]1O [Levomenthol] | -2.504
17 | C[C@]1(Cn2ccnn2)[C@H](C(=O)O)N2C(=O)C[C@H]2S1(=O)=O [Tazobactam] | -0.7786
18 | CC(=O)Oc1c(C)cc(OCC(O)CNC(C)C)c(C)c1C (stereo not shown) [Metipranolol] | -2.72
19 | CN1C(=O)NC(=O)C(C)(C2=CCCCC2)C1=O (stereo not shown) [Hexobarbital] | -2.735

Row | SMILES | ex_logS
20 | CC(C)[C@H](N)C(=O)O [Valine] | -0.3016
21 | C=CC(N)CCC(=O)O (stereo not shown) [Vigabatrin] | -0.37
22 | Nc1ccn([C@@H]2CS[C@H](CO)O2)c(=O)n1 [Lamivudine] | -0.5152
23 | C[C@]12CCC(=O)C=C1CC[C@@H]1[C@@H]2CC[C@]2(C)C(=O)CC[C@@H]12 [Androstenedione] | -3.695
24 | CSCC[C@H](N)C(=O)O [Methionine] | -0.421
25 | CC(C)NCC(O)c1cc(O)cc(O)c1 (stereo not shown) [Orciprenaline] | -4.338
26 | OC(Cn1cncn1)(Cn1cncn1)c1ccc(F)cc1F [fluconazole] | -1.8
27 | C[C@]12C=CC(=O)C=C1CC[C@@H]1[C@@H]2CC[C@]2(C)OC(=O)CC[C@@H]12 [Testolactone] | -4.04
28 | Cc1ccccc1N1C(=O)c2cc(S(N)(=O)=O)c(Cl)cc2NC1C (stereo not shown) [Metolazone] | -3.783
29 | CC(C)NCC1CCc2cc(CO)c([N+](=O)[O-])cc2N1 (stereo not shown) [Oxamniquine] | -2.532
30 | CC(=O)[C@H]1CC[C@H]2[C@@H]3CCC4=CC(=O)CC[C@]4(C)[C@H]3CC[C@]12C [progesterone] | -4.42
31 | CCC1(C)OC(=O)N(C)C1=O (stereo not shown) [Paramethadione] | -1.272
32 | CC(=O)Oc1ccc2c3c1O[C@H]1[C@@H](OC(C)=O)C=C[C@H]4[C@@H](C2)N(C)CC[C@@]341 [Diamorphine] | -2.789
33 | Nc1ccn([C@H]2CC[C@@H](CO)O2)c(=O)n1 [Zalcitabine] | -0.4416
34 | NCC[C@H](O)C(=O)N[C@@H]1C[C@H](N)[C@@H](O[C@H]2O[C@H](CN)[C@@H](O)[C@H](O)[C@H]2O)[C@H](O)[C@H]1O[C@H]1O[C@H](CO)[C@@H](O)[C@H](N)[C@H]1O [Amikacin] | -1.069
35 | NC1(C(=O)O)CCCC1 [Cycloleucine] | -0.4121
36 | O=[N+]([O-])O[C@H]1CO[C@H]2[C@@H]1OC[C@H]2O[N+](=O)[O-] [Isosorbide dinitrate] | -2.6328

same assay, conditions: experimental aqueous solubility as logS, sheet "DrugBank"; ref DrugBank database; cited from earlier work

Row | SMILES | ex_logS
37 | Clc1ccc(C(c2ccccc2Cl)C(Cl)Cl)cc1 (stereo not shown) [Mitotane] | -6.505
38 | O=c1[nH]c(=O)n([C@H]2C[C@H](O)[C@@H](CO)O2)cc1F [Floxuridine] | -1.316
39 | CCOC(=O)C1=C(C)NC(C)=C(C(=O)OC)C1c1cccc(Cl)c1Cl (stereo not shown) [Felodipine] | -4.29
40 | CN(C)CCc1c[nH]c2ccc(C[C@H]3COC(=O)N3)cc12 [Zolmitriptan] | -2.344
41 | COc1ccccc1OCC(O)COC(N)=O (stereo not shown) [Methocarbamol] | -0.9845
42 | Cn1c(=O)c2[nH]cnc2n(C)c1=O [Aminophylline] | -0.3227
43 | CCCSc1nc(N[C@@H]2C[C@H]2c2ccc(F)c(F)c2)c2nnn([C@@H]3C[C@H](OCCO)[C@@H](O)[C@H]3O)c2n1 [Ticagrelor] | -4.718
44 | Nc1ccc(C(=O)O)c(O)c1 [Aminosalicylic acid] | -1.957
45 | CC(CN1c2ccccc2Sc2ccccc21)N(C)C (stereo not shown) [Promethazine] | -4.261
46 | Cc1ccnc2c1ccc1c(C)ccnc12 [4,7-Dimethyl-[1,10]Phenanthroline] | -3.968
47 | CCC1(CC)C(=O)NCC(C)C1=O (stereo not shown) [Methyprylon] | -1.202
48 | CCN(CC)C(C)CN1c2ccccc2Sc2ccccc21 (stereo not shown) [Profenamine] | -5.654
49 | C1CCC(C(CC2CCCCN2)C2CCCCC2)CC1 (stereo not shown) [Perhexiline] | -6.659
50 | C[C@@H](CO)NC(=O)[C@@H]1C=C2c3cccc4[nH]cc(c34)C[C@H]2N(C)C1 [Ergometrine] | -2.084
51 | CCc1cccc2c3c([nH]c12)C(CC)(CC(=O)O)OCC3 (stereo not shown) [Etodolac] | -4.2543
52 | CCn1c(=O)c2c(nc(/C=C/c3ccc(OC)c(OC)c3)n2C)n(CC)c1=O [Istradefylline] | -5.886
53 | N[C@@H]1[C@H]2CN(c3nc4c(cc3F)c(=O)c(C(=O)O)cn4-c3ccc(F)cc3F)C[C@@H]12 [Trovafloxacin] | -4.53
54 | COc1ccc([C@@H]2CC(=O)c3c(O)cc(O)cc3O2)cc1O [Hesperetin] | -3.044
55 | CO[C@H]1/C=C/O[C@@]2(C)Oc3c(C)c(O)c4c(O)c(c(/C=N/N5CCN(C)CC5)c(O)c4c3C2=O)NC(=O)/C(C)=C\C=C\[C@H](C)[C@H](O)[C@@H](C)[C@@H](O)[C@@H](C)[C@H](OC(C)=O)[C@@H]1C [Rifampicin] | -2.769
56 | CN1CCN(C(c2ccccc2)c2ccccc2)CC1 [Cyclizine] | -2.4255
57 | OC[C@H]1O[C@@](CO)(O[C@H]2O[C@H](CO)[C@@H](O)[C@H](O)[C@H]2O)[C@@H](O)[C@@H]1O [Sucrose] | 0.7878
58 | C[C@@H]1O[C@@H](O[C@H]2C[C@@H](O)[C@]3(CO)[C@H]4[C@H](O)C[C@]5(C)[C@@H](C6=CC(=O)OC6)CC[C@]5(O)[C@@H]4CC[C@]3(O)C2)[C@H](O)[C@H](O)[C@H]1O [Ouabain] | -1.754
59 | N[C@@H](C(=O)N[C@@H]1C(=O)N2C(C(=O)O)=C(Cl)CS[C@H]12)c1ccccc1 [Cefaclor] | -1.566
60 | O=NN(CCCl)C(=O)NC1CCCCC1 [Lomustine] | -3.323
61 | COc1c(O[C@@H]2O[C@H](CO)[C@@H](O)[C@H](O)[C@H]2O)cc2c(c1OC)-c1ccc(SC)c(=O)cc1[C@@H](NC(C)=O)CC2 [Thiocolchicoside] | -1.751

Row | SMILES | ex_logS
62 | CN1CCC(CN2c3ccccc3Sc3ccccc32)C1 (stereo not shown) [Methdilazine] | -5.93
63 | O=C(/C=C/c1cccc(S(=O)(=O)Nc2ccccc2)c1)NO [Belinostat] | -3.357
64 | OC[C@@H](O)[C@@H](O)[C@H](O)[C@H](O)CO [Mannitol] | 0.07397
65 | NC(=O)c1cnccn1 [Pyrazinamide] | -0.9142
66 | CCOC(=O)[C@H](CCc1ccccc1)N[C@@H](C)C(=O)N1CCC[C@H]1C(=O)O [Enalapril] | -1.361
67 | Cn1cnc2c1c(=O)[nH]c(=O)n2C [Theobromine] | -2.737
68 | COc1ccc2[nH]c([S+]([O-])Cc3ncc(C)c(OC)c3C)nc2c1 (stereo not shown) [Omeprazole] | -2.983
69 | O=C(O)c1ccc2ccccc2n1 [Quinaldic Acid] | -1.092
70 | NS(=O)(=O)c1cc2c(cc1C(F)(F)F)NC(Cc1ccccc1)NS2(=O)=O (stereo not shown) [Bendroflumethiazide] | -3.591
71 | O=C(O)c1cc(=O)c2c(OCC(O)COc3cccc4oc(C(=O)O)cc(=O)c34)cccc2o1 [Cromoglicic acid] | -3.348
72 | CCCCCc1cc(O)c2c(c1)OC(C)(C)[C@@H]1CCC(C)=C[C@@H]21 [Dronabinol] | -5.05
73 | COc1ccc2c(c1)N(C[C@H](C)CN(C)C)c1ccccc1S2 [Methotrimeprazine] | -4.215
74 | CC/C(=C(/CC)c1ccc(O)cc1)c1ccc(O)cc1 [Diethylstilbestrol] | -4.35
75 | CCCN(CCC)S(=O)(=O)c1ccc(C(=O)O)cc1 [Probenecid] | -4.022
76 | COC(=O)C(c1ccccc1)C1CCCCN1 (stereo not shown) [Methylphenidate] | -2.269
77 | Oc1c(Cl)cc(Cl)cc1Sc1cc(Cl)cc(Cl)c1O [Bithionol] | -4.949
78 | Cc1nc2n(c(=O)c1CCN1CCC(c3noc4cc(F)ccc34)CC1)CCCC2 [Risperidone] | -2.246
79 | NNCCc1ccccc1 [Phenelzine] | -0.6703
80 | NC(=O)c1ccccc1O [Salicylamide] | -1.823
81 | CCOC(=O)[C@H](CCc1ccccc1)N[C@@H](C)C(=O)N1[C@H](C(=O)O)C[C@@H]2CCC[C@@H]21 [Ramipril] | -5.076
82 | C=CC1=C(C)c2cc3[nH]c(cc4nc(cc5[nH]c(cc1n2)c(C)c5CCC(=O)O)C(CCC(=O)O)=C4C)c(C)c3C=C [Protoporphyrin] | -3.522
83 | Nc1nc(F)nc2c1ncn2[C@@H]1O[C@H](CO)[C@@H](O)[C@@H]1O [Fludarabine] | -1.907
84 | c1cnc2c(c1)ccc1cccnc12 [1,10-Phenanthroline] | -1.826
85 | CC1=C(C(=O)O)N2C(=O)[C@@H](NC(=O)[C@H](N)C3=CCC=CC3)[C@H]2SC1 [Cefradine] | -1.215
